The values below come from ChEMBL document CHEMBL3046431, “Novel 4H-1,2,4-triazol-3-yl cycloalkanols as potent antitubercular agents” (Med Chem Res, 2013).

Values after ≈ are worked out from the molar mass of the structure shown.

System in the first series: not listed separately
Briefly: Selectivity index, ratio of CC50 for african green monkey Vero C1008 cells to MIC for Mycobacterium tuberculosis H37Rv. It counts as toxicity, cell-based. Conditions: read-out: Selectivity Index.
On to `OC(c1nnc(-c2cccnc2)[nH]1)C1CC=CCC1` (stereo unspecified), for which the selectivity ratio came to 44.
Same read-out and setting: the result for `OC(c1nnc(-c2ccccc2)[nH]1)C1CC=CCC1` (stereo unspecified) reads 29; that for `OC1(c2nnc(-c3ccccc3)[nH]2)CCCCC1`, 34; that for `NNC(=O)c1ccncc1` [ISONIAZID], 499.
As for `CC1CC(C)(C)CC(O)(c2nnc(-c3ccncc3)[nH]2)C1` (stereo unspecified), the selectivity ratio was found to be 637.
On the same count and under the same terms, the result for `Oc1ccc(-c2nnc(C3(O)CCCCC3)[nH]2)cc1` reads 45.
The same measure, in the same setting: the result for `OC1CCC(C(O)c2nnc(-c3ccccc3)[nH]2)CC1O` (stereo unspecified) reads 55; that for `OC(c1nnc(-c2ccncc2)[nH]1)C1CC=CCC1` (stereo unspecified), 310; that for `CC1CCC(O)(c2nnc(-c3ccncc3)[nH]2)CC1` (stereo unspecified), 424.
On the same count and under the same terms, the result for `Cc1nnc(C(O)C2CCC(O)C(O)C2)[nH]1` (stereo unspecified) reads 116.
Turning to `Cc1nnc(C(O)C2CC=CCC2)[nH]1` (stereo unspecified), the selectivity ratio is 62.
Same read-out and setting: to `CC1CC(C)(C)CC(O)(c2nnc(-c3cccnc3)[nH]2)C1` (stereo unspecified) belongs 29; to `CC1CC(C)(C)CC(O)(c2nnc(-c3ccc(O)cc3)[nH]2)C1` (stereo unspecified), 33.
Same read-out and setting: to `OC1(c2nnc(-c3ccncc3)[nH]2)CCCCC1` belongs 698; to `OC1(c2nnc(-c3cccnc3)[nH]2)CCCCC1`, 88.
On the same count and under the same terms, the result for `OC1CCC(C(O)c2nnc(-c3ccncc3)[nH]2)CC1O` (stereo unspecified) reads 477; that for `CC1CC(C)(C)CC(O)(c2nnc(-c3ccccc3)[nH]2)C1` (stereo unspecified), 25; that for `Cc1csc(-c2nnc(C3(O)C4CC5CC(C4)CC3C5)[nH]2)c1` (stereo unspecified), 84.
For the compound `CC1CCC(O)(c2nnc(-c3ccccc3)[nH]2)CC1` (stereo unspecified), the selectivity ratio was 28.
The same measure, in the same setting: the result for `Cc1csc(-c2nnc(C3(O)CCCCC3)[nH]2)c1` reads 226; that for `Cc1nnc(C2(O)CC(C)CC(C)(C)C2)[nH]1` (stereo unspecified), 84; that for `OC1(c2nnc(-c3ccncc3)[nH]2)CCCC1`, 490.
The same measure, in the same setting: the result for `Oc1ccc(-c2nnc(C3(O)CCCC3)[nH]2)cc1` reads 108; that for `Cc1nnc(C2(O)CCCCC2)[nH]1`, 63.

Another series deals with Mycobacterium tuberculosis. As to the kind of experiment: Antitubercular activity against Mycobacterium tuberculosis H37Rv assessed as growth inhibition after 7 days by resazurin microplate assay. In kind it is functional. Conditions: 168 h.
Turning to `OC(c1nnc(-c2cccnc2)[nH]1)C1CC=CCC1` (stereo unspecified), the MIC turned out to be 8.5 µg/mL (≈ 33.2 µM).
For `OC(c1nnc(-c2ccccc2)[nH]1)C1CC=CCC1` (stereo unspecified), the MIC is 12.5 µg/mL (≈ 49 µM).
The same measure, in the same setting: to `OC1(c2nnc(-c3ccccc3)[nH]2)CCCCC1` belongs 12.4 µg/mL (≈ 50.8 µM).
The same measure, in the same setting: to `NNC(=O)c1ccncc1` [ISONIAZID] belongs 0.4 µg/mL (≈ 2.92 µM).
Consider `CC1CC(C)(C)CC(O)(c2nnc(-c3ccncc3)[nH]2)C1` (stereo unspecified), for which the MIC was 0.65 µg/mL (≈ 2.27 µM).
Still for that read-out and setting: the result for `Oc1ccc(-c2nnc(C3(O)CCCCC3)[nH]2)cc1` reads 7.5 µg/mL (≈ 28.9 µM).
As to `OC1CCC(C(O)c2nnc(-c3ccccc3)[nH]2)CC1O` (stereo unspecified), the MIC was 7.75 µg/mL (≈ 26.8 µM).
On the same count and under the same terms, to `OC(c1nnc(-c2ccncc2)[nH]1)C1CC=CCC1` (stereo unspecified) belongs 1.25 µg/mL (≈ 4.88 µM); to `CC1CCC(O)(c2nnc(-c3ccncc3)[nH]2)CC1` (stereo unspecified), 0.95 µg/mL (≈ 3.68 µM); to `Cc1nnc(C(O)C2CCC(O)C(O)C2)[nH]1` (stereo unspecified), 3.25 µg/mL (≈ 14.3 µM).
Same read-out and setting: the result for `Cc1nnc(C(O)C2CC=CCC2)[nH]1` (stereo unspecified) reads 5.15 µg/mL (≈ 26.6 µM).
On the same count and under the same terms, to `CC1CC(C)(C)CC(O)(c2nnc(-c3cccnc3)[nH]2)C1` (stereo unspecified) belongs 12.5 µg/mL (≈ 43.6 µM); to `CC1CC(C)(C)CC(O)(c2nnc(-c3ccc(O)cc3)[nH]2)C1` (stereo unspecified), 10.5 µg/mL (≈ 34.8 µM); to `OC1(c2nnc(-c3ccncc3)[nH]2)CCCCC1`, 0.59 µg/mL (≈ 2.42 µM).
Take `OC1(c2nnc(-c3cccnc3)[nH]2)CCCCC1`: the MIC was determined as 4.5 µg/mL (≈ 18.4 µM).
Turning to `OC1CCC(C(O)c2nnc(-c3ccncc3)[nH]2)CC1O` (stereo unspecified), the MIC was determined as 0.9 µg/mL (≈ 3.1 µM).
The same measure, in the same setting: to `CC1CC(C)(C)CC(O)(c2nnc(-c3ccccc3)[nH]2)C1` (stereo unspecified) belongs 15.4 µg/mL (≈ 53.8 µM).
The same measure, in the same setting: to `Cc1csc(-c2nnc(C3(O)C4CC5CC(C4)CC3C5)[nH]2)c1` (stereo unspecified) belongs 4.25 µg/mL (≈ 13.5 µM); to `CC1CCC(O)(c2nnc(-c3ccccc3)[nH]2)CC1` (stereo unspecified), 15.5 µg/mL (≈ 60.2 µM); to `Cc1csc(-c2nnc(C3(O)CCCCC3)[nH]2)c1`, 1.65 µg/mL (≈ 6.27 µM).
Turning to `Cc1nnc(C2(O)CC(C)CC(C)(C)C2)[nH]1` (stereo unspecified), the minimal inhibitory concentration (MIC) came to 4.5 µg/mL (≈ 20.2 µM).
Same read-out and setting: the result for `OC1(c2nnc(-c3ccncc3)[nH]2)CCCC1` reads 0.78 µg/mL (≈ 3.39 µM).
The same measure, in the same setting: the result for `Oc1ccc(-c2nnc(C3(O)CCCC3)[nH]2)cc1` reads 3.2 µg/mL (≈ 13 µM); that for `Cc1nnc(C2(O)CCCCC2)[nH]1`, 6.25 µg/mL (≈ 34.5 µM).

System in a further series: not listed separately
As to the kind of experiment: Cytotoxicity against Chlorocebus aethiops (African green monkey) Vero C1008 cells assessed as cell viability after 72 hr by MTT assay. It counts as cell-based. Conditions: chlorocebus sabaeus.
`OC(c1nnc(-c2cccnc2)[nH]1)C1CC=CCC1` (stereo unspecified): the CC50 at 72 h came to 371 µg/mL (≈ 1450 µM).
On to `OC(c1nnc(-c2ccccc2)[nH]1)C1CC=CCC1` (stereo unspecified), for which the CC50 at 72 h stood at 358 µg/mL (≈ 1400 µM).
Same read-out and setting: the result for `OC1(c2nnc(-c3ccccc3)[nH]2)CCCCC1` reads 422 µg/mL (≈ 1730 µM).
Same read-out and setting: to `CC1CC(C)(C)CC(O)(c2nnc(-c3ccncc3)[nH]2)C1` (stereo unspecified) belongs 414 µg/mL (≈ 1450 µM).
Still for that read-out and setting: the result for `Oc1ccc(-c2nnc(C3(O)CCCCC3)[nH]2)cc1` reads 340 µg/mL (≈ 1310 µM); that for `OC1CCC(C(O)c2nnc(-c3ccccc3)[nH]2)CC1O` (stereo unspecified), 429 µg/mL (≈ 1480 µM).
With `OC(c1nnc(-c2ccncc2)[nH]1)C1CC=CCC1` (stereo unspecified), the CC50 at 72 h was determined as 388 µg/mL (≈ 1510 µM).
As to `CC1CCC(O)(c2nnc(-c3ccncc3)[nH]2)CC1` (stereo unspecified), the CC50 at 72 h was found to be 403 µg/mL (≈ 1560 µM).
Same read-out and setting: the result for `Cc1nnc(C(O)C2CCC(O)C(O)C2)[nH]1` (stereo unspecified) reads 378 µg/mL (≈ 1660 µM).
On to `Cc1nnc(C(O)C2CC=CCC2)[nH]1` (stereo unspecified), for which the CC50 at 72 h worked out at 318 µg/mL (≈ 1650 µM).
The same measure, in the same setting: the result for `CC1CC(C)(C)CC(O)(c2nnc(-c3cccnc3)[nH]2)C1` (stereo unspecified) reads 368 µg/mL (≈ 1290 µM).
On the same count and under the same terms, the result for `CC1CC(C)(C)CC(O)(c2nnc(-c3ccc(O)cc3)[nH]2)C1` (stereo unspecified) reads 352 µg/mL (≈ 1170 µM); that for `OC1(c2nnc(-c3ccncc3)[nH]2)CCCCC1`, 412 µg/mL (≈ 1690 µM).
Same read-out and setting: to `OC1(c2nnc(-c3cccnc3)[nH]2)CCCCC1` belongs 397 µg/mL (≈ 1630 µM); to `OC1CCC(C(O)c2nnc(-c3ccncc3)[nH]2)CC1O` (stereo unspecified), 429 µg/mL (≈ 1480 µM).
`CC1CC(C)(C)CC(O)(c2nnc(-c3ccccc3)[nH]2)C1` (stereo unspecified): the CC50 at 72 h was 383 µg/mL (≈ 1340 µM).
Same read-out and setting: to `Cc1csc(-c2nnc(C3(O)C4CC5CC(C4)CC3C5)[nH]2)c1` (stereo unspecified) belongs 356 µg/mL (≈ 1130 µM); to `CC1CCC(O)(c2nnc(-c3ccccc3)[nH]2)CC1` (stereo unspecified), 437 µg/mL (≈ 1700 µM); to `Cc1csc(-c2nnc(C3(O)CCCCC3)[nH]2)c1`, 373 µg/mL (≈ 1420 µM).
Still for that read-out and setting: to `Cc1nnc(C2(O)CC(C)CC(C)(C)C2)[nH]1` (stereo unspecified) belongs 380 µg/mL (≈ 1700 µM); to `OC1(c2nnc(-c3ccncc3)[nH]2)CCCC1`, 382 µg/mL (≈ 1660 µM); to `Oc1ccc(-c2nnc(C3(O)CCCC3)[nH]2)cc1`, 347 µg/mL (≈ 1410 µM).
On the same count and under the same terms, the result for `Cc1nnc(C2(O)CCCCC2)[nH]1` reads 392 µg/mL (≈ 2160 µM).
